Reference: the supplement of paper PMC10307832

What was measured:
Experiment in all cases: relative viability (nuclei count vs DMSO), 5 days (fraction); higher = more cells survive
Bortezomib + Pemetrexed = compound: CC(C)C[C@H](NC(=O)[C@H](Cc1ccccc1)NC(=O)c1cnccn1)B(O)O [Bortezomib] + Nc1nc2[nH]cc(CCc3ccc(C(=O)N[C@@H](CCC(=O)O)C(=O)O)cc3)c2c(=O)[nH]1 [Pemetrexed] (partner 0.2 µM)
Method in brief: (§1)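 Each reported value is a median over duplicate plates. It expresses relative viability: treated-well nuclei count divided by vehicle-well nuclei count. Lung cancer cell lines in 1536-well plates were dosed by pin tool a day after seeding, alone with one drug or with a fixed anchor-drug dose plus five library-drug doses (not always all listed) in √10 steps, and nuclei were counted after 5 days.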

[1] = compound: CC1=CC(=NN1)NC2=CC(=NC(=N2)/C=C/C3=CC=CC=C3)N4CCN(CC4)C + N=C(N)NC(=N)NCCc1ccccc1 [Phenformin] (partner 250 µM)
Method in brief: as §1

Obatoclax + Crizotinib = compound: COC1=CC(c2cc3ccccc3[nH]2)=N/C1=C\c1[nH]c(C)cc1C [Obatoclax] + C[C@@H](Oc1cc(-c2cnn(C3CCNCC3)c2)cnc1N)c1c(Cl)ccc(F)c1Cl [Crizotinib] (partner 1 µM)
Method in brief: as §1

Bortezomib + Olaparib = compound: CC(C)C[C@H](NC(=O)[C@H](Cc1ccccc1)NC(=O)c1cnccn1)B(O)O [Bortezomib] + O=C(c1cc(Cc2n[nH]c(=O)c3ccccc23)ccc1F)N1CCN(C(=O)C2CC2)CC1 [Olaparib] (partner 8 µM)
Method in brief: as §1

Row | Cell Line | relative viability (Bortezomib + Pemetrexed; first compound 0.0002 µM) | relative viability (Bortezomib + Pemetrexed; first compound 0.000632 µM) | relative viability (Bortezomib + Pemetrexed; first compound 0.002 µM) | relative viability (Bortezomib + Pemetrexed; first compound 0.006325 µM) | relative viability (Bortezomib + Pemetrexed; first compound 0.02 µM) | relative viability ([1]; first compound 0.08 µM) | relative viability ([1]; first compound 0.253 µM) | relative viability ([1]; first compound 0.8 µM) | relative viability ([1]; first compound 2.53 µM) | relative viability ([1]; first compound 8 µM) | relative viability (Obatoclax + Crizotinib; first compound 0.01 µM) | relative viability (Obatoclax + Crizotinib; first compound 0.03162 µM) | relative viability (Obatoclax + Crizotinib; first compound 0.1 µM) | relative viability (Obatoclax + Crizotinib; first compound 0.3162 µM) | relative viability (Obatoclax + Crizotinib; first compound 1 µM) | relative viability (Bortezomib + Olaparib; first compound 0.0002 µM) | relative viability (Bortezomib + Olaparib; first compound 0.000632 µM) | relative viability (Bortezomib + Olaparib; first compound 0.002 µM) | relative viability (Bortezomib + Olaparib; first compound 0.006325 µM) | relative viability (Bortezomib + Olaparib; first compound 0.02 µM)
1 | NCI-H1666 | 0.816 | 0.872 | 0.858 | 0.579 | 0.443 | 0.62 | 0.556 | 0.542 | 0.391 | 0.302 | 1.08 | 1.04 | 0.867 | 0.284 | 0.265 | 0.684 | 0.783 | 0.697 | 0.511 | 0.45
2 | NCI-H1437 | 0.284 | 0.301 | 0.351 | 0.172 | 0.157 | 0.3 | 0.331 | 0.307 | 0.16 | 0.107 | 0.804 | 0.857 | 0.861 | 0.896 | 1.03 | 0.586 | 0.627 | 0.553 | 0.199 | 0.154
3 | NCI-H1944 | 0.564 | 0.546 | 0.636 | 0.47 | 0.151 | 0.195 | 0.225 | 0.186 | 0.166 | 0.119 | 0.975 | 1.05 | 1.05 | 1.06 | 1.02 | 0.419 | 0.392 | 0.414 | 0.331 | 0.142
4 | SK-MES-1 | 0.956 | 1.02 | 0.915 | 0.211 | 0.167 | 0.664 | 0.682 | 0.601 | 0.147 | 0.124 | 0.97 | 0.953 | 0.978 | 0.959 | 0.81 | 0.649 | 0.839 | 0.521 | 0.171 | 0.159
5 | NCI-H1792 | 0.656 | 0.837 | 0.827 | 0.4 | 0.057 | 0.273 | 0.267 | 0.166 | 0.0557 | 0.0429 | 0.999 | 0.948 |  | 0.999 | 0.99 | 0.415 | 0.313 | 0.531 | 0.062 | 0.046
6 | NCI-H1355 | 1.02 | 0.97 | 1.06 | 0.711 | 0.13 | 0.484 | 0.423 | 0.435 | 0.26 | 0.148 | 1.13 | 0.93 | 1.04 | 1.03 | 0.915 | 0.733 | 0.725 | 0.666 | 0.118 | 0.107
7 | SK-LU-1 | 0.911 | 0.984 | 0.704 | 0.188 | 0.161 | 0.58 | 0.511 | 0.475 | 0.109 | 0.0429 | 1.03 | 0.836 | 0.761 | 0.403 | 0.339 | 0.477 | 0.442 | 0.462 | 0.198 | 0.149
8 | NCI-H2228 | 0.369 | 0.356 | 0.275 | 0.112 | 0.0808 | 0.286 | 0.284 | 0.238 | 0.066 | 0.0616 | 0.404 | 0.488 | 0.464 | 0.299 | 0.233 | 0.541 | 0.615 | 0.289 | 0.0866 | 0.0966
9 | NCI-H2347 | 0.418 | 0.43 | 0.413 | 0.417 | 0.357 | 0.402 | 0.347 | 0.435 | 0.38 | 0.208 | 0.738 | 0.671 | 0.556 | 0.742 | 0.382 | 0.413 | 0.572 | 0.338 | 0.245 | 0.249
10 | A-427 | 0.914 | 0.971 | 0.968 | 0.235 | 0.182 | 0.347 | 0.21 | 0.282 | 0.121 | 0.0986 | 0.958 | 0.792 | 0.802 | 0.999 | 0.968 | 0.711 | 0.727 | 0.759 | 0.188 | 0.151
11 | HCC-366 | 0.149 | 0.173 | 0.207 | 0.149 | 0.0543 | 0.63 | 0.7 | 0.62 | 0.189 | 0.0317 | 0.63 | 0.554 | 0.468 | 0.533 | 0.354 | 0.358 | 0.376 | 0.455 | 0.0607 | 0.0196
12 | HCC-78 | 0.786 | 0.89 | 0.932 | 0.887 | 0.902 | 0.647 | 0.704 | 0.722 | 0.381 | 0.293 | 0.326 | 0.34 |  | 0.317 | 0.314 | 0.928 | 0.662 | 0.398 | 0.233 | 0.258
13 | PC-14 | 0.126 | 0.142 | 0.166 | 0.0636 | 0.078 | 0.628 | 0.618 | 0.567 | 0.166 | 0.064 | 0.838 | 0.863 | 0.811 | 0.9 | 0.54 | 0.239 | 0.282 | 0.323 | 0.0333 | 0.0494
14 | NCI-H2087 | 0.626 | 0.761 | 0.63 | 0.0855 | 0.0402 | 0.536 | 0.318 | 0.488 | 0.105 | 0.1 | 0.818 | 0.864 | 0.83 | 0.768 | 0.294 | 0.634 | 0.672 | 0.286 | 0.0419 | 0.0226
15 | HOP-62 | 0.257 | 0.321 | 0.445 | 0.223 | 0.0603 | 0.713 | 0.758 | 0.688 | 0.459 | 0.26 | 0.837 | 0.911 | 0.998 | 0.796 | 1 | 0.392 | 0.448 | 0.165 | 0.0947 | 0.0397
16 | EKVX | 0.373 | 0.417 | 0.482 | 0.216 | 0.102 | 0.236 | 0.21 | 0.236 | 0.189 | 0.109 | 0.867 | 0.979 | 0.979 | 0.914 | 0.643 | 0.763 | 0.81 | 0.812 | 0.237 | 0.11
